Test results published in ChEMBL document CHEMBL5614413, “Design, synthesis and biological evaluation of amphiphilic benzopyran derivatives as potent antibacterial agents against multidrug-resistant bacteria” (Eur J Med Chem, 2024).
Converted amounts (≈) assume the structure as drawn.

What was measured:
[1] = system: Staphylococcus aureus; test: Antibacterial activity against erythromycin-susceptible Staphylococcus aureus ATCC 25923; type: functional
[2] = system: Staphylococcus aureus; test: Antibacterial activity against penicillin-resistant Staphylococcus aureus ATCC 31007; type: functional
[3] = system: Staphylococcus aureus; test: Antibacterial activity against methicillin-resistant Staphylococcus aureus ATCC 43300; type: functional
[4] = system: Bacillus subtilis; test: Antibacterial activity against penicillin-susceptible Bacillus subtilis ATCC 9372; type: functional
[5] = system: Enterococcus faecalis; test: Antibacterial activity against vancomycin-susceptible Enterococcus faecalis ATCC 29212; type: functional
[6] = system: Staphylococcus epidermidis; test: Antibacterial activity erythromycin-susceptible Staphylococcus epidermidis ATCC 12228; type: functional
[7] = system: Klebsiella pneumoniae; test: Antibacterial activity against Klebsiella pneumoniae ATCC 10031; type: functional
[8] = system: Acinetobacter baumannii; test: Antibacterial activity against Acinetobacter baumannii ATCC 19606; type: functional
[9] = system: Escherichia coli; test: Antibacterial activity against penicillin-susceptible Escherichia coli ATCC 25922; type: functional
[10] = system: Pseudomonas aeruginosa; test: Antibacterial activity against penicillin-susceptible Pseudomonas aeruginosa ATCC 27853; type: functional
[11] = Hemolytic activity in sheep RBC; type: toxicity, cell-based, Ovis aries, Erythrocyte; settings: sheep red blood cells (erythrocytes)
[12] = Selectivity index, ratio of HC50 for hemolytic activity in sheep RBC to MIC for antibacterial activity against methicillin-resistant Staphylococcus aureus ATCC 43300; type: toxicity; settings: sheep red blood cells (erythrocytes), read-out: Selectivity Index

| Compound | MIC [1] [µg/mL] | MIC [2] [µg/mL] | MIC [3] [µg/mL] | MIC [4] [µg/mL] | MIC [5] [µg/mL] | MIC [6] [µg/mL] | MIC [7] [µg/mL] | MIC [8] [µg/mL] | MIC [9] [µg/mL] | MIC [10] [µg/mL] | HC50 [11] [µg/mL] | selectivity ratio [12] |
| --- | --- | --- | --- | --- | --- | --- | --- | --- | --- | --- | --- | --- |
| CCN(CC)CCCNCCCOc1c(C(C)=O)ccc2c1C=CC(C)(CCC=C(C)C)O2 (stereo unspecified) | 8 (≈ 17.5 µM) | 16 (≈ 35 µM) | 8 (≈ 17.5 µM) | 8 (≈ 17.5 µM) | 8 (≈ 17.5 µM) | 8 (≈ 17.5 µM) | 8 (≈ 17.5 µM) | 8 (≈ 17.5 µM) | 8 (≈ 17.5 µM) | 16 (≈ 35 µM) | 140 | 17.5 |
| CC(=O)c1ccc2c(c1OCC(=O)NCCCN1CCOCC1)C=CC(C)(CCC=C(C)C)O2 (stereo unspecified) | 128 (≈ 272 µM) | 128 (≈ 272 µM) | 64 (≈ 136 µM) | 128 (≈ 272 µM) | 128 (≈ 272 µM) | 128 (≈ 272 µM) | 128 (≈ 272 µM) | 128 (≈ 272 µM) | > 128 | > 128 | 261 | 4.1 |
| CNCCCOc1c(C(C)=O)ccc2c1C=CC(C)(CCC=C(C)C)O2 (stereo unspecified) | 8 (≈ 22.4 µM) | 8 (≈ 22.4 µM) | 16 (≈ 44.8 µM) | 8 (≈ 22.4 µM) | 4 (≈ 11.2 µM) | 4 (≈ 11.2 µM) | 16 (≈ 44.8 µM) | 8 (≈ 22.4 µM) | 16 (≈ 44.8 µM) | 64 (≈ 179 µM) | 90.1 | – |
| CC(=O)c1c(OCCCNCCCN2CCCC2)c2c(c3c1OC(C)(CCC=C(C)C)C=C3)OC(C)(CCC=C(C)C)C=C2 (stereo unspecified) | 4 (≈ 6.61 µM) | 4 (≈ 6.61 µM) | 4 (≈ 6.61 µM) | 8 (≈ 13.2 µM) | 4 (≈ 6.61 µM) | 4 (≈ 6.61 µM) | 8 (≈ 13.2 µM) | 16 (≈ 26.5 µM) | 16 (≈ 26.5 µM) | 128 (≈ 212 µM) | 19.7 | 4.9 |
| CC(=O)c1ccc2c(c1OCCCN1CCOCC1)C=CC(C)(CCC=C(C)C)O2 (stereo unspecified) | > 128 | > 128 | > 128 | 128 (≈ 310 µM) | > 128 | > 128 | > 128 | 128 (≈ 310 µM) | > 128 | > 128 | 560 | < 4.4 |
| CC(=O)c1ccc2c(c1OCCCN(C)C)C=CC(C)(CCC=C(C)C)O2 (stereo unspecified) | 16 (≈ 43.1 µM) | 16 (≈ 43.1 µM) | 16 (≈ 43.1 µM) | 16 (≈ 43.1 µM) | 16 (≈ 43.1 µM) | 8 (≈ 21.5 µM) | 8 (≈ 21.5 µM) | 16 (≈ 43.1 µM) | 32 (≈ 86.1 µM) | 64 (≈ 172 µM) | 194 | 11.9 |
| CC(=O)c1ccc2c(c1OCC(=O)NCCCN1CCN(C)CC1)C=CC(C)(CCC=C(C)C)O2 (stereo unspecified) | 128 (≈ 265 µM) | 128 (≈ 265 µM) | 128 (≈ 265 µM) | > 128 | 128 (≈ 265 µM) | 128 (≈ 265 µM) | 128 (≈ 265 µM) | 128 (≈ 265 µM) | > 128 | > 128 | 220 | 1.7 |
| CC(=O)c1ccc2c(c1OCC(=O)NCCN(C)C)C=CC(C)(CCC=C(C)C)O2 (stereo unspecified) | 64 (≈ 154 µM) | 128 (≈ 309 µM) | 128 (≈ 309 µM) | 64 (≈ 154 µM) | 64 (≈ 154 µM) | 64 (≈ 154 µM) | 32 (≈ 77.2 µM) | 64 (≈ 154 µM) | 128 (≈ 309 µM) | 128 (≈ 309 µM) | 316 | 4.9 |
| CC(=O)c1ccc2c(c1OCCCN(CCCN(C)C)CCCN(C)C)C=CC(C)(CCC=C(C)C)O2 (stereo unspecified) | 64 (≈ 125 µM) | 64 (≈ 125 µM) | 32 (≈ 62.3 µM) | 32 (≈ 62.3 µM) | 64 (≈ 125 µM) | 32 (≈ 62.3 µM) | 16 (≈ 31.1 µM) | 16 (≈ 31.1 µM) | 16 (≈ 31.1 µM) | 64 (≈ 125 µM) | 325 | 5.1 |
| COc1c(C(=O)/C=C/c2ccc(OCCCN)cc2)ccc2c1C=CC(C)(CCC=C(C)C)O2 (stereo unspecified) | 8 (≈ 17.3 µM) | 16 (≈ 34.7 µM) | 8 (≈ 17.3 µM) | 8 (≈ 17.3 µM) | 16 (≈ 34.7 µM) | 8 (≈ 17.3 µM) | 16 (≈ 34.7 µM) | 16 (≈ 34.7 µM) | 8 (≈ 17.3 µM) | 16 (≈ 34.7 µM) | 111 | 13.8 |
| COLISTIN | 128 | 128 | 128 | 16 | 128 | 64 | 1 | 1 | 0.5 | 0.5 | – | – |
| CC(=O)c1ccc2c(c1OCCCN1CCSCC1)C=CC(C)(CCC=C(C)C)O2 (stereo unspecified) | > 128 | > 128 | > 128 | > 128 | > 128 | > 128 | > 128 | 128 (≈ 298 µM) | > 128 | > 128 | > 1280 | < 10 |
| CC(=O)c1ccc2c(c1OCCCN(C)CCCN(C)C)C=CC(C)(CCC=C(C)C)O2 (stereo unspecified) | 16 (≈ 36.1 µM) | 32 (≈ 72.3 µM) | 16 (≈ 36.1 µM) | 16 (≈ 36.1 µM) | 16 (≈ 36.1 µM) | 16 (≈ 36.1 µM) | 8 (≈ 18.1 µM) | 8 (≈ 18.1 µM) | 8 (≈ 18.1 µM) | 32 (≈ 72.3 µM) | 160 | 10 |
| CC(=O)c1c(OCCCNCCN(C)C)c2c(c3c1OC(C)(CCC=C(C)C)C=C3)OC(C)(CCC=C(C)C)C=C2 (stereo unspecified) | 1 (≈ 1.77 µM) | 2 (≈ 3.54 µM) | 2 (≈ 3.54 µM) | 2 (≈ 3.54 µM) | 1 (≈ 1.77 µM) | 0.5 (≈ 0.885 µM) | 4 (≈ 7.08 µM) | 2 (≈ 3.54 µM) | 2 (≈ 3.54 µM) | 32 (≈ 56.7 µM) | 45.2 | 22.6 |
| COc1c(C(=O)/C=C/c2ccc(OCCCNCCN(C)C)cc2)ccc2c1C=CC(C)(CCC=C(C)C)O2 (stereo unspecified) | 8 (≈ 15 µM) | 4 (≈ 7.51 µM) | 4 (≈ 7.51 µM) | 2 (≈ 3.75 µM) | 2 (≈ 3.75 µM) | 2 (≈ 3.75 µM) | 16 (≈ 30 µM) | 8 (≈ 15 µM) | 4 (≈ 7.51 µM) | 128 (≈ 240 µM) | 270 | 67.6 |
| CC(=O)c1c(OCCCN2CCOCC2)c2c(c3c1OC(C)(CCC=C(C)C)C=C3)OC(C)(CCC=C(C)C)C=C2 (stereo unspecified) | > 128 | > 128 | > 128 | > 128 | > 128 | > 128 | > 128 | > 128 | > 128 | > 128 | > 128 | < 10 |
| CC(=O)c1ccc2c(c1OCCCNCCCN1CCN(C)CC1)C=CC(C)(CCC=C(C)C)O2 (stereo unspecified) | 16 (≈ 33.1 µM) | 16 (≈ 33.1 µM) | 16 (≈ 33.1 µM) | 16 (≈ 33.1 µM) | 16 (≈ 33.1 µM) | 8 (≈ 16.5 µM) | 16 (≈ 33.1 µM) | 16 (≈ 33.1 µM) | 16 (≈ 33.1 µM) | 32 (≈ 66.2 µM) | 168 | 10.5 |
| CC(=O)c1c(OCCCN2CCSCC2)c2c(c3c1OC(C)(CCC=C(C)C)C=C3)OC(C)(CCC=C(C)C)C=C2 (stereo unspecified) | > 128 | > 128 | > 128 | > 128 | > 128 | > 128 | > 128 | > 128 | > 128 | > 128 | 844 | < 6.6 |
| CNCCCOc1ccc(/C=C/C(=O)c2ccc3c(c2OC)C=CC(C)(CCC=C(C)C)O3)cc1 (stereo unspecified) | 8 (≈ 16.8 µM) | 8 (≈ 16.8 µM) | 16 (≈ 33.6 µM) | 4 (≈ 8.41 µM) | 4 (≈ 8.41 µM) | 1 (≈ 2.1 µM) | 32 (≈ 67.3 µM) | > 128 | > 128 | > 128 | 90.5 | 5.6 |
| CC(=O)c1c(OCCCN(C)C)c2c(c3c1OC(C)(CCC=C(C)C)C=C3)OC(C)(CCC=C(C)C)C=C2 (stereo unspecified) | 2 (≈ 3.83 µM) | 2 (≈ 3.83 µM) | 4 (≈ 7.67 µM) | 2 (≈ 3.83 µM) | 1 (≈ 1.92 µM) | 1 (≈ 1.92 µM) | > 128 | > 128 | > 128 | > 128 | 64 | 16 |
| COc1c(C(=O)/C=C/c2ccc(OCCCN(C)CCCN(C)C)cc2)ccc2c1C=CC(C)(CCC=C(C)C)O2 (stereo unspecified) | 4 (≈ 7.13 µM) | 4 (≈ 7.13 µM) | 4 (≈ 7.13 µM) | 4 (≈ 7.13 µM) | 2 (≈ 3.57 µM) | 1 (≈ 1.78 µM) | 4 (≈ 7.13 µM) | 8 (≈ 14.3 µM) | 2 (≈ 3.57 µM) | > 128 | 119 | 29.8 |
| CC(=O)c1c(OCCCN(CCCN(C)C)CCCN(C)C)c2c(c3c1OC(C)(CCC=C(C)C)C=C3)OC(C)(CCC=C(C)C)C=C2 (stereo unspecified) | 4 (≈ 6.02 µM) | 4 (≈ 6.02 µM) | 2 (≈ 3.01 µM) | 4 (≈ 6.02 µM) | 4 (≈ 6.02 µM) | 4 (≈ 6.02 µM) | 8 (≈ 12 µM) | 8 (≈ 12 µM) | 8 (≈ 12 µM) | 128 (≈ 193 µM) | 30.2 | 15.1 |
| CCCCN(CCCC)CCCNCCCOc1c2c(c3c(c1C(C)=O)OC(C)(CCC=C(C)C)C=C3)OC(C)(CCC=C(C)C)C=C2 (stereo unspecified) | 1 (≈ 1.51 µM) | 2 (≈ 3.02 µM) | 4 (≈ 6.03 µM) | 4 (≈ 6.03 µM) | 1 (≈ 1.51 µM) | 1 (≈ 1.51 µM) | 8 (≈ 12.1 µM) | 4 (≈ 6.03 µM) | 8 (≈ 12.1 µM) | 128 (≈ 193 µM) | 36.7 | 9.2 |
| CCCCN(CCCC)CCCNC(=O)COc1c(C(C)=O)ccc2c1C=CC(C)(CCC=C(C)C)O2 (stereo unspecified) | 16 (≈ 31.2 µM) | 16 (≈ 31.2 µM) | 8 (≈ 15.6 µM) | 4 (≈ 7.8 µM) | 32 (≈ 62.4 µM) | 32 (≈ 62.4 µM) | 128 (≈ 250 µM) | 128 (≈ 250 µM) | > 128 | > 128 | 270 | 33.8 |
| CC(=O)c1ccc2c(c1OCCCN1CCCC1)C=CC(C)(CCC=C(C)C)O2 (stereo unspecified) | 32 (≈ 80.5 µM) | 16 (≈ 40.2 µM) | 16 (≈ 40.2 µM) | 16 (≈ 40.2 µM) | 16 (≈ 40.2 µM) | 8 (≈ 20.1 µM) | 8 (≈ 20.1 µM) | 32 (≈ 80.5 µM) | > 128 | > 128 | 366 | – |
